We go through eight molecules from patent US20250057959A1, “PHOSPHANE GOLD(I)-N-HETEROCYCLIC CARBENE COMPLEXES FOR TREATING CANCER” (KING FAHD UNIVERSITY OF PETROLEUM AND MINERALS, priority 2023, published 2025).

Format in all cases: cell-based, human
One test deals with A2780. The experiment in a line: MTT cell viability assay, A2780. The settings on record: for IC50: 72 hours treatment, MTT; for Activity compared with cisplatin or auranofin in A2780 cells: comparison of IC50, Table 8. An excerpt: (§1) Human epithelial ovarian cancer A2780 cell line and its cisplatin-resistant clone A2780cis were obtained from Sigma-Aldrich (Milano, Italy). SKOV3 (HTB-77) cells were from the American Type Culture Collection (ATCC). The two cell lines were selected to reflect the two different stages of OvCa and different sensitivity to cisplatin. A2780 cell lines were derived from the ovarian tumor tissue of an untreated patient, while SKOV3 was from the ascitic fluids (after metastasis). Cells were authenticated in the laboratory using PowerPlex 16 HS system (Promega) and GeneMapper ID version 3.2.1 to identify DNA short tandem repeats. Cell lines were cultured in RPMI-1640 medium containing 10% fetal bovine serum (FBS) (Gibco, Thermo Fisher Scientific, U.S.A), 1% (v/v) of penicillin (10,000 units/mL)-streptomycin (10 mg/mL), and 1% (v/v) L-glutamine (200 mM) (all from Sigma- Aldrich) at 37° C. in a 5% CO2 fully humidified atmosphere. A2780cis cells were continuously exposed to 1 μM cisplatin to maintain cisplatin resistance. Adipose-derived stem cells (ADSCs) were purchased from Lonza and maintained in mesenchymal-stem-cell growth medium Bulletkit MSCGM (Lonza, Verviers, Belgium).
(§2) 4.0×10^3/mL A2780, A2780cis, and SKOV3 cells were seeded in 96-well microplates in 100 μL of culture medium. Cells were allowed to adhere for 24 hours and then were treated in triplicate with increasing concentrations of gold compounds (0-1 μM). Cisplatin was included as a reference drug. Cell viability was evaluated using 3-(4,5-dimethylthiazol-2-yl)-2,5-diphenyltetrazolium bromide (MTT) assay (Sigma-Aldrich) after 72 hours of treatment. Half maximal inhibitory concentrations (IC50) were calculated using the CalcuSyn software version 2 (Biosoft, Ferguson, MO, USA). Fold resistance was calculated as the ratio of the IC50 of the A2780cis to that of the parental cell line A2780.
Background: Formazan colour is commonly taken as a measure of viable cells.

Test [1] has as its system A2780cis. Briefly: MTT cell viability assay, cisplatin-resistant A2780cis. The settings on record: for IC50: 72 hours treatment, MTT; for Fold resistance (A2780cis/A2780): IC50 A2780cis/IC50 A2780. The source says:
Human epithelial ovarian cancer A2780 cell line and its cisplatin-resistant clone A2780cis were obtained from Sigma-Aldrich (Milano, Italy). SKOV3 (HTB-77) cells were from the American Type Culture Collection (ATCC). The two cell lines were selected to reflect the two different stages of OvCa and different sensitivity to cisplatin. A2780 cell lines were derived from the ovarian tumor tissue of an untreated patient, while SKOV3 was from the ascitic fluids (after metastasis). […] Cell lines were cultured in RPMI-1640 medium containing 10% fetal bovine serum (FBS) (Gibco, Thermo Fisher Scientific, U.S.A), 1% (v/v) of penicillin (10,000 units/mL)-streptomycin (10 mg/mL), and 1% (v/v) L-glutamine (200 mM) (all from Sigma- Aldrich) at 37° C. in a 5% CO2 fully humidified atmosphere. […] Cisplatin was included as a reference drug. […] Fold resistance was calculated as the ratio of the IC50 of the A2780cis to that of the parental cell line A2780.

Test [2] relates to A2780 and A2780cis cells. The experiment in a line: DNA double-strand breaks, γ-H2AX western blot. As to the method:
Whole-cell lysates were prepared using cold RIPA buffer [150 mM NaCl, 50 mM Tris-HCl (pH 8), 0.1% SDS, 1% Igepal, and 0.5% desoxycholate sodium] containing a protease inhibitor cocktail (Roche Diagnostics S.p.a., Milan, Italy), phosphatase inhibitors 1 mM Na3VO4 and 1 mM NaF (Sigma-Aldrich). Protein concentrations were determined using the BioRad protein assay (Bio-Rad Laboratories, Inc., CA, USA). Equal amounts of proteins were mixed with Laemmli buffer, separated in 4-20% SDS-PAGE (Criterion Precast Gel, BioRad), and blotted onto a nitrocellulose membrane (Amersham, GE Healthcare). Membrane strips were blocked with EveryBilot blocking buffer (Bio-Rad) and incubated at 4° C. overnight with primary antibodies probed with the appropriate antibodies (Table 2) and developed using Immobilon Western chemioluminescent HRP substrate. Images were acquired using a ChemiDoc XRS system (Bio-Rad).
For orientation: Immunoblotting shows a protein as a band on a membrane.

A further test relates to SKOV3-MCTSs. Briefly: SKOV3-MCTS spheroid volume. Here is the method: To generate single spheroids with defined size, 1.0×10^3/mL SKOV3 cells were seeded 4 days under nonadherent conditions in U-bottom 96-well plates coated twice with 20 mg/mL of poly(2-hydroxyethyl methacrylate) (poly-HEMA; Sigma) in 95% ethanol. Spheroid size was measured at days 0, 3, and 7 after drug treatment initiation using an inverted microscope (Eclipse TS/100, Nikon, Tokyo, Japan) with photomicrographic systems DS camera control unit DS-L2. Spheroid volumes were calculated using the formula (width^2×length×3.14)/6.

The test system of test [3] is A2780cis. The experiment in a line: Cell cycle analysis (PI, flow cytometry), A2780cis. The following applies: 24 hours. Here is the method: (§3) Results were detected by flow cytometry on a BD FACSCanto II flow cytometer. Data were analyzed using BD FACSDiva version 8.0.1 software (BD Biosciences) unless otherwise indicated. To evaluate apoptosis, tumor cells were treated for 48 hours and then stained for 15 minutes with FITC annexin-V (Thermo Fisher Scientific) and 7AAD (BD Pharmingen). […] For B-cell lymphoma/leukemia-2 (Bcl-2) and Bcl-2 associated x protein (Bax) evaluation, cells were fixed and permeabilized using FIX & PERM cell fixation and cell permeabilization kit (Life Technologies). […] The distribution of cells in different cell cycle phases was quantified using ModFit LT 4.0 software (Verity Software House, Topsham, ME, USA).
Background: A flow cytometer gives signals particle by particle.

Test [4] relates to A2780 and A2780cis cells. Briefly: Apoptosis by flow cytometry (annexin-V/7AAD, caspase-3,7, BAX, Bcl-2). The following applies: 48 hours; complex 6 and auranofin at IC50 and IC75, cisplatin 0.15 μM and 0.50 μM. Here is the method:
as §3

Test [5] concerns A2780 and A2780cis cells. Briefly: mitROS generation (MitoSOX red), flow cytometry. As to the method: as §3
A further test concerns SKOV3 cells. The experiment in a line: MTT cell viability assay, SKOV3. The following applies: 72 hours treatment.
Description: as §1, §2

Test [6] relates to A2780 cells. The experiment in a line: Cell cycle analysis (PI, flow cytometry), A2780. The following applies: for Effect on cell cycle phases: A2780, 24 hours, auranofin 0.5 μM (IC50), cisplatin 0.50 μM. Here is the method:
as §3

The subject of test [7] is A2780 cells. The experiment in a line: ROS generation (MitoSOX red), flow cytometry, A2780. The settings on record: cisplatin 0.50 μM; from 6.4%. Here is the method: 2.0×10^5/mL A2780 and A2780cis cells were seeded in 6-well plates in complete medium and treated with complex 6 (0.15 μM and 0.5 μM). Results were detected by flow cytometry on a BD FACSCanto II flow cytometer. Data were analyzed using BD FACSDiva version 8.0.1 software (BD Biosciences) unless otherwise indicated. To evaluate apoptosis, tumor cells were treated for 48 hours and then stained for 15 minutes with FITC annexin-V (Thermo Fisher Scientific) and 7AAD (BD Pharmingen). […] For B-cell lymphoma/leukemia-2 (Bcl-2) and Bcl-2 associated x protein (Bax) evaluation, cells were fixed and permeabilized using FIX & PERM cell fixation and cell permeabilization kit (Life Technologies). For ROS generation, cells were stained with 5 μM MitoSOX red mitochondrial superoxide indicator (ThermoFisher Scientific) in a working solution for 30 minutes at 37° C. Cell cycle analysis was performed after 24 hours treatment with complex 6. Cells were harvested, fixed in cold 70% ethanol for 15 minutes, and stained with propidium iodide (PI) solution ([…] PI, 0.1% NP-40, 100 µg/mL PureLink RNase A, 0.1% sodium citrate) for 1 hour. The distribution of cells in different cell cycle phases was quantified using ModFit LT 4.0 software (Verity Software House, Topsham, ME, USA).

On to `CC(C)c1cccc(C(C)C)c1-n1ccn(-c2c(C(C)C)cccc2C(C)C)[c]1=[Au+][PH](c1ccccc1)(c1ccccc1)C(c1ccccc1)C(N)c1ccccc1.F[P-](F)(F)(F)(F)F` (stereo not shown) [Complex 3, [Au(IPr)(C26H24NP)] PF6], for which, in the test with A2780, the IC50 (commonly the concentration that gives 50% inhibition) amounted to 0.78 ± 0.06 µM and the “Activity compared with cisplatin or auranofin in A2780 cells” value is “more active than cisplatin”. In addition, in the test on A2780cis [1], the IC50 amounted to 1.14 ± 0.1 µM and the “Fold resistance (A2780cis/A2780)” value was determined as 1.46.
In the same order, the values of `CC(C)c1cccc(C(C)C)c1-n1ccn(-c2c(C(C)C)cccc2C(C)C)[c]1=[Au+][PH](CC(N)C(C)(C)C)(c1ccccc1)c1ccccc1.F[P-](F)(F)(F)(F)F` (stereo not shown) [Complex 5, [Au(IPr)(C18H24NP)] PF6] are 0.75 ± 0.07 µM, “more active than cisplatin”, 0.92 ± 0.08 µM and 1.23.
The molecule `CC(C)c1cccc(C(C)C)c1-n1ccn(-c2c(C(C)C)cccc2C(C)C)[c]1=[Au+][PH](CCC#N)(CCC#N)c1ccccc1.F[P-](F)(F)(F)(F)F` [Complex 1, [Au(IPr)(C12H13N2P)] PF6] gave an IC50 in the test on A2780 of 2 ± 0.19 µM. Moreover, in the test with A2780cis [1], the IC50 stood at 3.55 ± 0.35 µM and the “Fold resistance (A2780cis/A2780)” value was 1.78.
`CC(C)c1cccc(C(C)C)c1-n1ccn(-c2c(C(C)C)cccc2C(C)C)[c]1=[Au+][PH](CCCN)(c1ccccc1)c1ccccc1.F[P-](F)(F)(F)(F)F` [Complex 7, [Au(IPr)(C15H18NP)] PF6] came in with an IC50 in the test with A2780 of 1.42 ± 0.12 µM. In the test with A2780cis [1], the IC50 was determined as 1.8 ± 0.15 µM and the “Fold resistance (A2780cis/A2780)” value was found to be 1.27.
Consider `CC[PH](CC)(CC)[Au][S][C@@H]1O[C@H](COC(C)=O)[C@@H](OC(C)=O)[C@H](OC(C)=O)[C@H]1OC(C)=O` [Auranofin, (2,3,4,6-tetra-O-acetyl-L-thio-β-D-glycopyranosato-S-)-(triethylphosphane)gold(I), reference compound], for which the “DNA double-strand breaks (γH2AX)” value in the test with A2780 and A2780cis cells [2] is listed as “induced”. Moreover, the IC50 with A2780 was found to be 0.51 ± 0.07 µM; in the test on A2780 (listed as auranofin), 0.5 µM; in the test on A2780cis [1], 1.91 ± 0.22 µM; with A2780cis [1] (listed as auranofin) it was 1.9 µM; with SKOV3 cells it was 2.3 µM. For the same molecule, the “Effect on SKOV3-MCTSs at 1 μM” value in the test with SKOV3-MCTSs (1 μM) was “did not reduce SKOV3-MCTS volume”. Also, the “Concentration at which SKOV3-MCTS growth inhibition was seen” value in the test with SKOV3-MCTSs (72 hours) was “higher than 5 μM”. Moreover, the “sub-G0/G1 phase (DNA fragmentation)” value with A2780cis [3] (2.5 μM (IC75)) came to 1.7%; in the test on A2780 cells [6] (A2780, 0.8 μM (IC75), 24 hours), 11%. For the same molecule, the “Effect on cell cycle phases” value was “slightly decreased the G1 phase and increased the S phase” with A2780cis [3]; “decreased the G1 phase” in the test with A2780 cells [6]. In the test with A2780cis [1], the “Fold resistance (A2780cis/A2780)” value is reported as 3.7. The “Apoptosis (annexin-V / 7AAD positive cells)” value with A2780 and A2780cis cells [4] is given as “less active in inducing apoptosis in cisplatin-resistant A2780cis than in A2780 cells”. The mitROS generation result with A2780 and A2780cis cells [5] was “induced ROS generation”.
Turning to `CC(C)c1cccc(C(C)C)c1-n1ccn(-c2c(C(C)C)cccc2C(C)C)[c]1=[Au+][PH](CC(N)c1ccccc1)(c1ccccc1)c1ccccc1.F[P-](F)(F)(F)(F)F` (stereo not shown) [Complex 4, [Au(IPr)(C20H20NP)] PF6], in the test on A2780, the IC50 was found to be 0.82 ± 0.05 µM and the “Activity compared with cisplatin or auranofin in A2780 cells” value is “more active than cisplatin”. Further, in the test on A2780cis [1], the midpoint of inhibition, the IC50, lay at 1.17 ± 0.15 µM and the “Fold resistance (A2780cis/A2780)” value was found to be 1.43.
In the case of `N.N.[Cl][Pt][Cl]` [Cisplatin, reference compound], the “DNA double-strand breaks (γH2AX)” value in the test on A2780 and A2780cis cells [2] is recorded as “did not induce”. For the same molecule, the IC50 stood at 1.5 µM in the test on A2780, 10.4 µM with A2780cis [1] and 5.4 µM with SKOV3 cells. Further, the “Decrease of SKOV3-MCTS growth with respect to control” value in the test on SKOV3-MCTSs (1 μM, 7 days) is listed as 16%. For the same molecule, the “Fold resistance (A2780cis/A2780)” value with A2780cis [1] amounted to 6.93. For the same molecule, the “Apoptosis (annexin-V / 7AAD positive cells)” value in the test with A2780 and A2780cis cells [4] was “did not induce apoptosis”. Also, the “ROS generation (positive cells)” value in the test with A2780 cells [7] amounted to 17.4%. Moreover, in the test with A2780 cells [6], the “Effect on cell cycle phases” value is “slight increase of the G2/M phase”.
As for `CC(C)c1cccc(C(C)C)c1-n1ccn(-c2c(C(C)C)cccc2C(C)C)[c]1=[Au+][PH](c1ccccc1)(c1ccccc1)[C@@H]1CCCC[C@H]1N.F[P-](F)(F)(F)(F)F` [Complex 2, [Au(IPr)(C18H22NP)] PF6], in the test with A2780, the IC50 worked out at 0.5 ± 0.04 µM and the “Activity compared with cisplatin or auranofin in A2780 cells” value is reported as “more active than cisplatin”. Also, in the test on A2780cis [1], the midpoint of inhibition, the IC50, lay at 0.8 ± 0.04 µM and the “Fold resistance (A2780cis/A2780)” value came out at 1.6.
